The target in this assay is T1, JAK2 JH1JH2 V617F kinase (Homo sapiens, UniProt O60674, V617F).
T1 construct: JAK2 JH1JH2 V617F kinase; inferred from Ni-NTA capture and imidazole elution; made in house; host or cells: Sf9 insect cells
As to the kind of experiment: JAK2 Luminescence-Based ATP Depletion Enzyme Assay (JAK2-V617F). Type of assay: biochemical. As to conditions: 10 μM ATP. As to the method:
JAK2 Luminescence-Based ATP Depletion Enzyme Assay
Materials: JAK3tide peptide substrate=GGEEEEYFELVKKKK (Biopeptide, San Diego, Calif.), ATP (Sigma Cat#A-3377, FW=551), HEPES buffer, pH 7.6, 10% Brij 35 (Calbiochem Cat#203728), MgCl2, Staurosporine (Streptomyces sp. Sigma Cat#85660-1MG), white Corning (Costar) 384-well flat bottom plate (VWR Cat#29444-088), JAK2 KD (kinase domain) or JAK2 JH1JH2 V617F kinase (see below), Kinase-Glo™ (Promega Cat#V6712).
Stock Solutions: 5 mM JAK3tide peptide (9.86 mg/ml in 100 mM HEPES, pH 7.6), stored at −20° C.; 100 mM HEPES buffer, pH 7.6, 10% Brij 35; 10 mM ATP (5.51 mg/ml in 100 mM HEPES, pH 7.6) stored at −20° C. (diluted 50 μl into total of 10 ml 100 mM HEPES, pH 7.6, daily=50 μM ATP working stock); 100 mM MgCl2; 200 μM Staurosporine, 2× Kinase-Glo™ reagent (made fresh or stored at −20° C.).
Standard Assay Conditions for 384-well format (20 μl kinase reaction, 40 μl detection reaction): 10 mM MgCl2; 0.1 mM JAK3tide peptide (or, 0.5 mM JAK3tide peptide for JAK2 JH1JH2 V617F assay); 1 μl test compound (in 100% DMSO); 0.4 μg/ml JAK2 KD kinase or 12 μg/ml JAK2 JH1JH2 V617F kinase; 10 μM ATP; 100 mM HEPES+0.01% Brij, pH 7.6. Positive controls contained 5% DMSO with no test compound. Negative controls contained 10 μM staurosporine. The kinase reactions were initiated at time t=0 by the addition of ATP. Kinase reactions were incubated at 21-23° C. for 30 min, after which 20 μl of Kinase-Glo™ reagent were added to each well to quench the kinase reaction and initiate the luminescence reaction. After a 20 min incubation at 21-23° C., the luminescence was detected in a plate-reading luminometer (Tecan Ultra Evolution).
The pellet of Sf9 insect cells produced from a 6 L expression of Jak2 was resuspended in a buffer containing 50 mM Tris-HCl pH 8.5, 250 mM NaCl, 5% Glycerol, 0.2% β-octylglucoside, 5 mM β-mercaptoethanol (or with ligand added to the buffer eg. 5 mM ATP and 10 mM MgCl2; 0.05 mM compound of the invention) in a volume of approximately 40 mL per 1 L of original culture. One tablet of Roche Complete, EDTA-free protease inhibitor cocktail (Cat. #1873580) was added per 1 L of original culture. The suspension was then stirred for 1 hour at 4° C. Debris was removed by centrifugation for 30 minutes at 39,800 g at 4° C. The supernatant was decanted into a 500 mL beaker and 10 mL of 50% Qiagen Ni-NTA Agarose (Cat. #30250) pre-equilibrated in 50 mM Tris-HCl pH 8.5, 250 mM NaCl, 5% Glycerol, 0.2% β-octylglucoside, 5 mM β-mercaptoethanol was added and stirred for 30 minutes at 4° C. The sample was poured through a drip column at 4° C. and washed with 10 column volumes (CV) of 50 mM Tris-HCl pH 8.5, 250 mM NaCl, 5% Glycerol, 0.2% β-octylglucoside, 5 mM β-mercaptoethanol. The protein was eluted in 5 mL fractions using 5 CV of the same buffer containing 250-500 mM Imidazole. Fractions were pooled by SDS-PAGE analysis and the protein concentration determined by a Bradford assay. 5 mM TCEP was added to the pool and the protein sample was concentrated to ˜8 mL by centrifugation in an Amicon Ultra-15 10,000 Da MWCO centrifugal filter unit (Cat. #UFC901024). The concentrated protein was applied to a GE Healthcare HiLoad 16/60 Superdex 75 or 200 prep grade column (Cat. #17-1068-01, Cat. #17-1069-01) equilibrated in 20 mM Tris-HCl pH 8.5, 250 mM NaCl, and 1 mM DTT. Fractions were run on a SDS-PAGE gel and the cleanest fractions were pooled. The protein was concentrated to approximately 6.5-10 mg/mL. Samples in the final buffer (20 mM Tris-HCl pH 8.5, 250 mM NaCl, 1 mM DTT; [or with ligand added eg. 2 mM ATP/5 mM MgCl2 or 0.05 mM compound of the invention]) are delivered fresh to crystallization and stored at 4° C. or flash frozen in liquid nitrogen (as 120 μL aliquots) and stored at −80° C.

Drawing on patent US7977481B2, “Pyrimidinyl-thiophene kinase modulators” (SGX Pharmaceuticals, Inc., priority 2005, dated 2011), this text covers IC50 for eight compounds.

Usually IC50 stands for the concentration that inhibits the measured activity by half. Read a high IC50 as weaker potency.

T1 sequence (O60674 536-1132 V617F limits assumed): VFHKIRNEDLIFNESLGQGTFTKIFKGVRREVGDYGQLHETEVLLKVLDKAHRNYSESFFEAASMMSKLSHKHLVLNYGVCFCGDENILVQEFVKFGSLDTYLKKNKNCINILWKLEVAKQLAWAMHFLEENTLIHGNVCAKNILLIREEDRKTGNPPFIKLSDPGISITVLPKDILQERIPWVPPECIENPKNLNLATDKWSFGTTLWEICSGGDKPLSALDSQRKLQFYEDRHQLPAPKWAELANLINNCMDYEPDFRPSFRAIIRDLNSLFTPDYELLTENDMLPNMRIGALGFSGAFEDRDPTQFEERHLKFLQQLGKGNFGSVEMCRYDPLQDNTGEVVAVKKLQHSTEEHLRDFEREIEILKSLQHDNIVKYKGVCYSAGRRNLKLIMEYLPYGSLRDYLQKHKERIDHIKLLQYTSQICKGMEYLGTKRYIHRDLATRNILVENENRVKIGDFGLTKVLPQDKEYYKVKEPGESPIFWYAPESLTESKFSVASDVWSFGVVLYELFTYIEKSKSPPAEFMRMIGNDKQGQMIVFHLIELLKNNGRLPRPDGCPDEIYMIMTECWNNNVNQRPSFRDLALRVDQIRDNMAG

`CCN(CCC#N)C(=O)c1ccc(-c2ccnc(Nc3cccc(C(C)O)c3)n2)s1` (centres unmarked) displayed an IC50 of under 500 nM.
In the case of `CC(O)c1cccc(Nc2nccc(-c3ccc(-c4cccc(CC#N)c4)s3)n2)c1` (centres unmarked), the IC50 was under 500 nM.
Compound `CC(O)c1cccc(Nc2nccc(-c3ccc(S(=O)(=O)N(C)C)s3)n2)c1` (centres unmarked) came in with an IC50 of under 500 nM.
`CN(C)C1CCN(c2cccc(Nc3nccc(-c4ccc(C(=O)NCc5ccco5)s4)n3)c2)C1` (centres unmarked) displayed a half-inhibitory concentration (IC50) of under 500 nM.
Compound `CCN(CCC#N)S(=O)(=O)c1ccc(-c2ccnc(Nc3cccc(C(C)O)c3)n2)s1` (centres unmarked) came in with an IC50 of under 500 nM.
The compound `CCN(CCC#N)S(=O)(=O)c1ccc(-c2ccnc(Nc3cccc(C)c3)n2)s1` came in with an IC50 of under 500 nM.
The figure for `O=C(NCc1ccccc1)c1ccc(-c2ccnc(Nc3ccc(CCO)cc3)n2)s1` is under 500 nM.
The figure for `C[C@@H](NC(=O)c1ccc(-c2ccnc(Nc3cccc(CN4CCC(O)CC4)c3)n2)s1)c1ccccc1` is under 500 nM.
